Laboratory results as given in patent publication US11109593B2, “Isoxazolin-5-one derivative and herbicide containing same as active ingredient” (HOKKO CHEMICAL INDUSTRY CO., LTD., priority 2017, dated 2021).

What was measured:
Format in all cases: in vivo
[1] = test system: broad leaf weeds (Lindernia pyxidaria and Monochoria vaginalis); assay: Test Example 2: herbicidal effect test by treatment during growing period in paddy rice cultivation (seven days after seeding); conditions: 120 g/10a active ingredient, assessed 14 days after treatment, dry weight vs untreated area; for pest or weed control at 1200 g/ha: 336 h
Summary of the method: (§1)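 Emulsion formulations, diluted in water, applied dropwise to flooded pots (about 3 cm water) 7 days post-seeding at 120 g a.i./10 ares. Weeds sown 30 seeds each, 0–1 cm deep in puddled paddy soil; greenhouse. Readout: % reduction in plant dry weight vs untreated, day 14, duplicates.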

[2] = test system: Echinochloa crus-galli; assay: as above; conditions: 120 g/10a active ingredient, assessed 14 days after treatment, dry weight vs untreated area; for pest or weed control at 1200 g/ha: Echinochloa crus-galli, 336 h, read-out: herbicidal rate (%) Echinochloa crus-galli
Summary of the method: as §1

[3] = test system: Scirpus juncoides; assay: as above; conditions: 120 g/10a active ingredient, assessed 14 days after treatment, dry weight vs untreated area; for pest or weed control at 1200 g/ha: Schoenoplectiella juncoides, 336 h, read-out: herbicidal rate (%) Scirpus juncoides
Summary of the method: as §1

[4] = test system: broad leaf weeds (Lindernia pyxidaria and Monochoria vaginalis); assay: Test Example 1: herbicidal effect test by treatment of rice paddy soil (immediately after seeding); conditions: 120 g/10a active ingredient, dry weight vs untreated area, 14 days after treatment; for pest or weed control at 1200 g/ha: 336 h
Summary of the method: (§2)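 Applied at 120 g a.i./10 ares as diluted emulsion dropped into flooded (~3 cm) paddy soil pots right after sowing seeds 0–1 cm deep; greenhouse, two replicates. At day 14, dry weight of treated versus untreated plants gives % herbicidal rate.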

[5] = test system: Echinochloa crus-galli; assay: as above; conditions: 120 g/10a active ingredient, dry weight vs untreated area, 14 days after treatment; for pest or weed control at 1200 g/ha: in Echinochloa crus-galli, 336 h, read-out: Herbicidal rate (%) Echinochloa crus-galli
Summary of the method: as §2

[6] = test system: Scirpus juncoides; assay: as above; conditions: 120 g/10a active ingredient, dry weight vs untreated area, 14 days after treatment; for pest or weed control at 1200 g/ha: in Schoenoplectiella juncoides, 336 h, read-out: Herbicidal rate (%) Scirpus juncoides
Summary of the method: as §2

[7] = test system: Amaranthus viridis; assay: Test Example 4: herbicidal effect test by treatment of leave and stem in dry field farming (seven days after seeding); conditions: 120 g/10a active ingredient, emulsion sprayed seven days after seeding, evaluated 14 days after treatment; for pest or weed control at 1200 g/ha: Amaranthus viridis, 336 h, read-out: herbicidal effect (herbicidal rate), Amaranthus viridis
Summary of the method: (§3)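 Duplicate pots were scored 14 days post-spray by dry weight, herbicidal rate = {1 − treated/untreated average dry weight} × 100. The water-diluted emulsion, equivalent to 120 g active ingredient per 10 ares in 100 L, was applied seven days after sowing 20 seeds each into the upper 1 cm of alluvial soil.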

[8] = test system: Echinochloa crus-galli; assay: as above; conditions: 120 g/10a active ingredient, emulsion sprayed seven days after seeding, evaluated 14 days after treatment; for pest or weed control at 1200 g/ha: Echinochloa crus-galli, 336 h, read-out: herbicidal effect (herbicidal rate), Echinochloa crus-galli
Summary of the method: as §3

[9] = test system: Chenopodium album; assay: as above; conditions: 120 g/10a active ingredient, emulsion sprayed seven days after seeding, evaluated 14 days after treatment; for pest or weed control at 1200 g/ha: Chenopodium album, 336 h, read-out: herbicidal effect (herbicidal rate), Chenopodium album
Summary of the method: as §3

[10] = test system: southern crabgrass; assay: as above; conditions: 120 g/10a active ingredient, emulsion sprayed seven days after seeding, evaluated 14 days after treatment; for pest or weed control at 1200 g/ha: Digitaria ciliaris, 336 h, read-out: herbicidal effect (herbicidal rate), southern crabgrass
Summary of the method: as §3

[11] = test system: Amaranthus viridis; assay: Test Example 3: herbicidal effect test by treatment of dry field farming soil (one day after seeding); conditions: 120 g/10a active ingredient, evaluated 14 days after treatment; for pest or weed control at 1200 g/ha: Amaranthus viridis, 336 h, read-out: herbicidal rate, Amaranthus viridis
Summary of the method: (§4)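 Herbicidal rate (%) = {1 − treated/untreated mean plant dry weight} × 100, scored 14 days after spraying, duplicate pots per concentration. Emulsified compound was water-diluted and applied to soil surface one day post-seeding at 120 g a.i. per 10 ares.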

[12] = test system: Echinochloa crus-galli; assay: as above; conditions: 120 g/10a active ingredient, evaluated 14 days after treatment; for pest or weed control at 1200 g/ha: Echinochloa crus-galli, 336 h, read-out: herbicidal rate, Echinochloa crus-galli
Summary of the method: as §4

[13] = test system: Chenopodium album; assay: as above; conditions: 120 g/10a active ingredient, evaluated 14 days after treatment; for pest or weed control at 1200 g/ha: Chenopodium album, 336 h, read-out: herbicidal rate, Chenopodium album
Summary of the method: as §4

[14] = test system: southern crabgrass; assay: as above; conditions: 120 g/10a active ingredient, evaluated 14 days after treatment; for pest or weed control at 1200 g/ha: Digitaria ciliaris, 336 h, read-out: herbicidal rate, southern crabgrass
Summary of the method: as §4

[15] = Lindernia pyxidaria, read-out: herbicidal rate (%) Lindernia pyxidaria
[16] = Monochoria vaginalis, read-out: herbicidal rate (%) Monochoria vaginalis
[17] = Monochoria vaginalis, read-out: Herbicidal rate (%) Monochoria vaginalis
[18] = in Lindernia, Lindernia pyxidaria, read-out: Herbicidal rate (%) Lindernia pyxidaria

Row | Compound | Herbicidal rate (%) Lindernia pyxidaria ([1]; Lindernia pyxidaria) | Herbicidal rate (%) Monochoria vaginalis ([1]; Monochoria vaginalis) | Herbicidal rate (%) Echinochloa crus-galli [2] | Herbicidal rate (%) Scirpus juncoides [3] | Herbicidal rate (%) Lindernia pyxidaria ([4]; Lindernia pyxidaria) | Herbicidal rate (%) Monochoria vaginalis ([4]; Monochoria vaginalis) | Herbicidal rate (%) Echinochloa crus-galli [5] | Herbicidal rate (%) Scirpus juncoides [6] | herbicidal effect (herbicidal rate), Amaranthus viridis [7] | herbicidal effect (herbicidal rate), Echinochloa crus-galli [8] | herbicidal effect (herbicidal rate), Chenopodium album [9] | herbicidal effect (herbicidal rate), southern crabgrass [10] | herbicidal rate, Amaranthus viridis [11] | herbicidal rate, Echinochloa crus-galli [12] | herbicidal rate, Chenopodium album [13] | herbicidal rate, southern crabgrass [14] | further results
1 | CCC(C)n1oc(=O)c(Cc2ccccc2NS(=O)(=O)C(F)(F)F)c1C (centres unmarked) [Compound 1-102, 1,1,1-trifluoro-N-[2-[(3-methyl-5-oxo-2-sec-butyl-isoxazol-4-yl)methyl]phenyl]methanesulfonamide] |  |  |  |  |  |  |  |  |  |  |  |  |  |  |  |  | pest or weed control at 1200 g/ha [1, 15]: 60%; pest or weed control at 1200 g/ha [1, 16]: 90%; pest or weed control at 1200 g/ha [2]: 90%; pest or weed control at 1200 g/ha [3]: 90%; pest or weed control at 1200 g/ha [4, 17]: 100%; pest or weed control at 1200 g/ha [4, 18]: 100%; pest or weed control at 1200 g/ha [5]: 100%; pest or weed control at 1200 g/ha [6]: 100%; pest or weed control at 1200 g/ha [7]: 40%; pest or weed control at 1200 g/ha [8]: 90%; pest or weed control at 1200 g/ha [9]: 0%; pest or weed control at 1200 g/ha [10]: 80%; pest or weed control at 1200 g/ha [11]: 80%; pest or weed control at 1200 g/ha [12]: 90%; pest or weed control at 1200 g/ha [13]: 80%; pest or weed control at 1200 g/ha [14]: 90%
2 | CCC(CC)n1oc(=O)c(Cc2ccccc2NS(=O)(=O)C(F)(F)F)c1C [Compound 1-103] | 60% | 80% | 90% | 80% | 80% | 100% | 100% | 90% | 90% | 90% | 40% | 90% | 100% | 100% | 100% | 100% | 
3 | Cc1c(Cc2ccccc2NS(=O)(=O)C(F)(F)F)c(=O)on1CC(C)C [Compound 1-105, 1,1,1-trifluoro-N-[2-[(2-isobutyl-3-methyl-5-oxoisoxazol-4-yl)methyl]phenyl]methanesulfonamide] |  |  |  |  |  |  |  |  |  |  |  |  |  |  |  |  | pest or weed control at 1200 g/ha [1, 15]: 90%; pest or weed control at 1200 g/ha [1, 16]: 90%; pest or weed control at 1200 g/ha [2]: 90%; pest or weed control at 1200 g/ha [3]: 90%; pest or weed control at 1200 g/ha [4, 17]: 100%; pest or weed control at 1200 g/ha [4, 18]: 100%; pest or weed control at 1200 g/ha [5]: 90%; pest or weed control at 1200 g/ha [6]: 90%; pest or weed control at 1200 g/ha [7]: 50%; pest or weed control at 1200 g/ha [8]: 90%; pest or weed control at 1200 g/ha [9]: 40%; pest or weed control at 1200 g/ha [10]: 50%; pest or weed control at 1200 g/ha [11]: 70%; pest or weed control at 1200 g/ha [12]: 60%; pest or weed control at 1200 g/ha [13]: 50%; pest or weed control at 1200 g/ha [14]: 90%
4 | Cc1c(Cc2ccccc2NS(=O)(=O)C(F)(F)F)c(=O)on1CC(C)(C)C [Compound 1-106] | 90% | 90% | 90% | 90% | 90% | 90% | 90% | 90% | 40% | 90% | 40% | 90% | 90% | 90% | 90% | 90% | 
5 | CCCC(C)n1oc(=O)c(Cc2ccccc2NS(=O)(=O)C(F)(F)F)c1C (centres unmarked) [Compound 1-109] | 70% | 90% | 90% | 90% | 100% | 100% | 100% | 100% | 70% | 90% | 50% | 80% | 60% | 90% | 60% | 90% | 
6 | CCCC(CC)n1oc(=O)c(Cc2ccccc2NS(=O)(=O)C(F)(F)F)c1C (centres unmarked) [Compound 1-110] | 80% | 100% | 100% | 80% | 100% | 100% | 100% | 100% | 60% | 90% | 50% | 90% | 80% | 90% | 80% | 90% | 
7 | CCC(C)Cn1oc(=O)c(Cc2ccccc2NS(=O)(=O)C(F)(F)F)c1C (centres unmarked) [Compound 1-112] | 80% | 80% | 90% | 90% | 90% | 90% | 100% | 90% | 40% | 90% | 0% | 50% | 60% | 90% | 80% | 90% | 
8 | CCC(CC)Cn1oc(=O)c(Cc2ccccc2NS(=O)(=O)C(F)(F)F)c1C [Compound 1-113] | 60% | 80% | 90% | 90% | 100% | 100% | 100% | 100% | 60% | 80% | 40% | 60% | 80% | 90% | 100% | 90% | 
